The values that follow come from patent US9988430B2, “Stable GLP-1 based GLP-1/glucagon receptor co-agonists” (Novo Nordisk A/S, priority 2014, dated 2018).

What is called pIC50 is the negative decadic logarithm of the IC50, by convention in mol/L.

pIC50: −log10 of the molar value. *1 amine or outer side, *2 acyl side, *3 side chain or, on linkers, in order; H or OH if unused. Where a SMILES comes first, the peptide text is derived from it. Bridges are numbered along the chain shown (N, C = ends). Roman numbers before positions name the chains, in order. Side-chain parts run from the residue outwards. [ ]: non-standard residue; d: D form. The star is where a group is joined. C18 diacid = O=C(O)CCCCCCCCCCCCCCCCC(=O)*; γGlu = O=C(O)[C@H](CCC(=O)[*:2])N[*:1]; Desaminohistidyl = O=C(CCc1c[nH]cn1)*; Ac4c = NC1(C(=O)O)CCC1; AEEA = NCCOCCOCC(=O)O; Aib = CC(C)(N)C(=O)O

T1 sequence (P43220 24-463): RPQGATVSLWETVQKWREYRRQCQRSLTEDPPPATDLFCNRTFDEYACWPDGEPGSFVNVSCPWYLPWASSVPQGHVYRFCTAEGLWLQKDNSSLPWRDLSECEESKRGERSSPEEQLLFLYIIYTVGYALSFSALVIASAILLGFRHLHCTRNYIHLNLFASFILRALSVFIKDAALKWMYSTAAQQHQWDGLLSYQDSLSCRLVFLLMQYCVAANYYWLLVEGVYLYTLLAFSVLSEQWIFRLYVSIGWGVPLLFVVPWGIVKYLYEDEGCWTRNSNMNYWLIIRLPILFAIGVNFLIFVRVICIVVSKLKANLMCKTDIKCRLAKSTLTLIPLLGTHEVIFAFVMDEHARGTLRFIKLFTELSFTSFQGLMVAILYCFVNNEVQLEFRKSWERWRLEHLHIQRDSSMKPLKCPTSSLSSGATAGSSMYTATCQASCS

This assay addresses T1, human GLP-1 receptor (Homo sapiens, UniProt P43220).
T1 construct: expressed in transfected cells; host or cells: membranes of BHK cells, parent line BHKTS13, clone FCW467-12A
The assay is described as follows: Assay (II)(a): GLP-1 receptor binding, [125I]GLP-1 displacement, SPA on BHK membranes. To be noted: displacement of [125I]GLP-1, membranes with human GLP-1 receptor; read-out: IC50 GLP-1R. Put shortly:
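Membranes from BHK cells expressing human GLP-1 receptor with WGA SPA beads, [125I]GLP-1(7-36)NH2 (480 pM added solution) and compound in HEPES pH 7.4 buffer with EGTA, MgCl2, Tween 20. Incubated 2 h at 30° C; SPA counts fitted by non-linear regression to IC50 in nM.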
On the technique in general: In a radioligand displacement assay an active substance lowers the binding of a labelled ligand.
Turning to `CC[C@H](C)[C@H](NC(=O)[C@H](Cc1ccccc1)NC(=O)[C@H](CCC(=O)O)NC(=O)[C@H](CCCNC(=N)N)NC(=O)[C@H](C)NC(=O)[C@H](C)NC(=O)[C@H](CCC(N)=O)NC(=O)[C@H](CCC(=O)O)NC(=O)[C@H](CCC(=O)O)NC(=O)[C@H](CC(C)C)NC(=O)[C@H](Cc1ccc(O)cc1)NC(=O)[C@H](CCCCN)NC(=O)[C@H](CO)NC(=O)[C@@H](NC(=O)[C@H](CC(=O)O)NC(=O)[C@H](CO)NC(=O)[C@@H](NC(=O)[C@H](Cc1ccccc1)NC(=O)[C@@H](NC(=O)CNC(=O)[C@H](Cc1c[nH]cn1)NC(=O)C1(NC(=O)CCc2c[nH]cn2)CCC1)[C@@H](C)O)[C@@H](C)O)C(C)C)C(=O)N[C@@H](C)C(=O)N[C@@H](Cc1c[nH]c2ccccc12)C(=O)N[C@@H](CC(C)C)C(=O)N[C@@H](CC(C)C)C(=O)N[C@@H](CCCCNC(=O)CNC(=O)[C@H](CO)NC(=O)[C@H](CCC(=O)O)NC(=O)CNC(=O)[C@H](CO)NC(=O)CC[C@H](NC(=O)CC[C@H](NC(=O)CCCCCCCCCCCCCCCCC(=O)O)C(=O)O)C(=O)O)C(=O)N[C@H](C(N)=O)[C@@H](C)O` [Example 9, N^ε34-[2-[[(2S)-2-[[(2S)-4-carboxy-2-[[2-[[(2S)-2-[[(4S)-4-carboxy-4-[[(4S)-4-carboxy-4-(17-carboxyheptadecanoylamino)butanoyl]amino]butanoyl]amino]-3-hydroxypropanoyl]amino]acetyl]amino]butanoyl]amino]-3-hydroxypropanoyl]amino]acetyl]-[Imp7,Acb8,His9,Lys18,Glu22,Arg26,Leu33,Thr35]-GLP-1-(7-35)-peptide amide] (I: Desaminohistidyl-[Ac4c]HGTFTSDVSKYLEEQAAREFIAWLLKT-NH2 / II: {C18 diacid-γGlu-γGlu}-SGESG; amide I:27-II:C), the pIC50 was 10.00.

In the case of `CC[C@H](C)[C@H](NC(=O)[C@H](Cc1ccccc1)NC(=O)[C@H](CCC(=O)O)NC(=O)[C@H](CCCNC(=N)N)NC(=O)[C@H](C)NC(=O)[C@H](C)NC(=O)[C@H](CCCNC(=N)N)NC(=O)CNC(=O)[C@H](CCC(=O)O)NC(=O)[C@H](CC(C)C)NC(=O)[C@H](Cc1ccc(O)cc1)NC(=O)[C@H](CCCCN)NC(=O)[C@H](CO)NC(=O)[C@@H](NC(=O)[C@H](CC(=O)O)NC(=O)[C@H](CO)NC(=O)[C@@H](NC(=O)[C@H](Cc1ccccc1)NC(=O)[C@@H](NC(=O)CNC(=O)[C@H](Cc1c[nH]cn1)NC(=O)[C@H](C)NC(=O)CCc1c[nH]cn1)[C@@H](C)O)[C@@H](C)O)C(C)C)C(=O)N[C@@H](C)C(=O)N[C@@H](Cc1c[nH]c2ccccc12)C(=O)N[C@@H](CC(C)C)C(=O)N[C@@H](CC(C)C)C(=O)N[C@@H](CCCCNC(=O)COCCOCCNC(=O)COCCOCCNC(=O)CC[C@H](NC(=O)CC[C@H](NC(=O)CC[C@H](NC(=O)CCCCCCCCCCCCCCCCC(=O)O)C(=O)O)C(=O)O)C(=O)O)C(=O)N[C@H](C(N)=O)[C@@H](C)O` [Example 10, N^ε34-[2-[2-[2-[[2-[2-[2-[[(4S)-4-carboxy-4-[[(4S)-4-carboxy-4-[[(4S)-4-carboxy-4-(17-carboxyheptadecanoylamino)butanoyl]amino]butanoyl]amino]butanoyl]amino]ethoxy]ethoxy]acetyl]amino]ethoxy]ethoxy]acetyl]-[Imp7,His9,Lys18,Arg23,Arg26,Leu33,Thr35]-GLP-1-(7-35)-peptide amide] (Desaminohistidyl-AHGTFTSDVSKYLEGRAAREFIAWLLK([AEEA-AEEA-γGlu-γGlu-γGlu-C18 diacid])T-NH2), the pIC50 is 9.00.

On to `CC[C@H](C)[C@H](NC(=O)[C@H](Cc1ccccc1)NC(=O)[C@H](CCC(=O)O)NC(=O)[C@H](CCCNC(=N)N)NC(=O)[C@H](C)NC(=O)[C@H](C)NC(=O)[C@H](CCC(N)=O)NC(=O)[C@H](CCC(=O)O)NC(=O)[C@H](CCC(=O)O)NC(=O)[C@H](CC(C)C)NC(=O)[C@H](Cc1ccc(O)cc1)NC(=O)[C@H](CCCCN)NC(=O)[C@H](CO)NC(=O)[C@@H](NC(=O)[C@H](CC(=O)O)NC(=O)[C@H](CO)NC(=O)[C@@H](NC(=O)[C@H](Cc1ccccc1)NC(=O)[C@@H](NC(=O)CNC(=O)[C@H](Cc1c[nH]cn1)NC(=O)C(C)(C)NC(=O)CCc1c[nH]cn1)[C@@H](C)O)[C@@H](C)O)C(C)C)C(=O)N[C@@H](C)C(=O)N[C@@H](Cc1c[nH]c2ccccc12)C(=O)N[C@@H](CC(C)C)C(=O)N[C@@H](CC(C)C)C(=O)N[C@@H](CCCCNC(=O)COCCOCCNC(=O)COCCOCCNC(=O)CC[C@H](NC(=O)CCCCCCCCCCCCCCCCC(=O)O)C(=O)O)C(=O)N[C@H](C(N)=O)[C@@H](C)O` [Example 12, N^ε34-[2-[2-[2-[[2-[2-[2-[[(4S)-4-carboxy-4-(17-carboxyheptadecanoylamino)butanoyl]amino]ethoxy]ethoxy]acetyl]amino]ethoxy]ethoxy]acetyl]-[Imp7,Aib8,His9,Lys18,Glu22,Arg26,Leu33,Thr35]-GLP-1-(7-35)-peptide amide] (Desaminohistidyl-[Aib]HGTFTSDVSKYLEEQAAREFIAWLLK([AEEA-AEEA-γGlu-C18 diacid])T-NH2), for which the pIC50 was 9.15.

In the case of `CC[C@H](C)[C@H](NC(=O)[C@H](Cc1ccccc1)NC(=O)[C@H](CCC(=O)O)NC(=O)[C@H](CCCNC(=N)N)NC(=O)[C@H](C)NC(=O)[C@H](C)NC(=O)[C@H](CCCNC(=N)N)NC(=O)CNC(=O)[C@H](CCC(=O)O)NC(=O)[C@H](CC(C)C)NC(=O)[C@H](Cc1ccc(O)cc1)NC(=O)[C@H](CCCCN)NC(=O)[C@H](CO)NC(=O)[C@@H](NC(=O)[C@H](CC(=O)O)NC(=O)[C@H](CO)NC(=O)[C@@H](NC(=O)[C@H](Cc1ccccc1)NC(=O)[C@@H](NC(=O)CNC(=O)[C@H](Cc1c[nH]cn1)NC(=O)C1(NC(=O)CCc2c[nH]cn2)CCC1)[C@@H](C)O)[C@@H](C)O)C(C)C)C(=O)N[C@@H](C)C(=O)N[C@@H](Cc1c[nH]c2ccccc12)C(=O)N[C@@H](CC(C)C)C(=O)N[C@@H](CC(C)C)C(=O)N[C@@H](CCCCNC(=O)CNC(=O)[C@H](CO)NC(=O)[C@H](CCC(=O)O)NC(=O)CNC(=O)[C@H](CO)NC(=O)CC[C@H](NC(=O)CC[C@H](NC(=O)CCCCCCCCCCCCCCCCC(=O)O)C(=O)O)C(=O)O)C(=O)N[C@H](C(N)=O)[C@@H](C)O` [Example 20, N^ε34-[2-[[(2S)-2-[[(2S)-4-carboxy-2-[[2-[[(2S)-2-[[(4S)-4-carboxy-4-[[(4S)-4-carboxy-4-(17-carboxyheptadecanoylamino)butanoyl]amino]butanoyl]amino]-3-hydroxypropanoyl]amino]acetyl]amino]butanoyl]amino]-3-hydroxypropanoyl]amino]acetyl]-[Imp7,Acb8,His9,Lys18,Arg23,Arg26,Leu33,Thr35]-GLP-1-(7-35)-peptide amide] (I: Desaminohistidyl-[Ac4c]HGTFTSDVSKYLEGRAAREFIAWLLKT-NH2 / II: {C18 diacid-γGlu-γGlu}-SGESG; amide I:27-II:C), the pIC50 was 9.52.

Take `CC[C@H](C)[C@H](NC(=O)[C@H](Cc1ccccc1)NC(=O)[C@H](CCC(=O)O)NC(=O)[C@H](CCCNC(=N)N)NC(=O)[C@H](C)NC(=O)[C@H](C)NC(=O)[C@H](CCCNC(=N)N)NC(=O)[C@H](C)NC(=O)[C@H](CCC(=O)O)NC(=O)[C@H](CC(C)C)NC(=O)[C@H](Cc1ccc(O)cc1)NC(=O)[C@H](CCCCN)NC(=O)[C@H](CO)NC(=O)[C@@H](NC(=O)[C@H](CC(=O)O)NC(=O)[C@H](CO)NC(=O)[C@@H](NC(=O)[C@H](Cc1ccccc1)NC(=O)[C@@H](NC(=O)CNC(=O)[C@H](Cc1c[nH]cn1)NC(=O)C(C)(C)NC(=O)CCc1c[nH]cn1)[C@@H](C)O)[C@@H](C)O)C(C)C)C(=O)N[C@@H](C)C(=O)N[C@@H](Cc1c[nH]c2ccccc12)C(=O)N[C@@H](CC(C)C)C(=O)N[C@@H](CC(C)C)C(=O)N[C@@H](CCCCNC(=O)CC[C@H](NC(=O)COCCOCCNC(=O)COCCOCCNC(=O)CC[C@H](NC(=O)CC[C@H](NC(=O)CCCCCCCCCCCCCCCCC(=O)O)C(=O)O)C(=O)O)C(=O)O)C(=O)NCC(=O)NCC(=O)NCC(=O)O` [Example 31, N^ε34-[(4S)-4-carboxy-4-[[2-[2-[2-[[2-[2-[2-[[(4S)-4-carboxy-4-[[(4S)-4-carboxy-4-(17-carboxyheptadecanoylamino)butanoyl]amino]butanoyl]amino]ethoxy]ethoxy]acetyl]amino]ethoxy]ethoxy]acetyl]amino]butanoyl]-[Imp7,Aib8,His9,Lys18,Ala22,Arg23,Arg26,Leu33,Gly36]-GLP-1-(7-37)-peptide] (Desaminohistidyl-[Aib]HGTFTSDVSKYLEARAAREFIAWLLK([γGlu-AEEA-AEEA-γGlu-γGlu-C18 diacid])GGG-OH): the pIC50 is 9.52.

Consider `CC[C@H](C)[C@H](NC(=O)[C@H](Cc1ccccc1)NC(=O)[C@H](CCC(=O)O)NC(=O)[C@H](CCCNC(=N)N)NC(=O)[C@H](C)NC(=O)[C@H](C)NC(=O)[C@H](CCCNC(=N)N)NC(=O)CNC(=O)[C@H](CCC(=O)O)NC(=O)[C@H](CC(C)C)NC(=O)[C@H](Cc1ccc(O)cc1)NC(=O)[C@H](CCCNC(=N)N)NC(=O)[C@H](CO)NC(=O)[C@@H](NC(=O)[C@H](CC(=O)O)NC(=O)[C@H](CO)NC(=O)[C@@H](NC(=O)[C@H](Cc1ccccc1)NC(=O)[C@@H](NC(=O)CNC(=O)[C@H](Cc1c[nH]cn1)NC(=O)C(C)(C)NC(=O)CCc1c[nH]cn1)[C@@H](C)O)[C@@H](C)O)C(C)C)C(=O)N[C@@H](C)C(=O)N[C@@H](Cc1c[nH]c2ccccc12)C(=O)N[C@@H](CC(C)C)C(=O)N[C@@H](CC(C)C)C(=O)N[C@@H](CCCCNC(=O)CC[C@H](NC(=O)CC[C@H](NC(=O)COCCOCCNC(=O)CC[C@H](NC(=O)CC[C@H](NC(=O)CCCCCCCCCCCCCCCCC(=O)O)C(=O)O)C(=O)O)C(=O)O)C(=O)O)C(=O)NCC(=O)N[C@@H](C)C(=O)NCC(=O)O` [Example 35, N^ε34-[(4S)-4-carboxy-4-[[(4S)-4-carboxy-4-[[2-[2-[2-[[(4S)-4-carboxy-4-[[(4S)-4-carboxy-4-(17-carboxyheptadecanoylamino)butanoyl]amino]butanoyl]amino]ethoxy]ethoxy]acetyl]amino]butanoyl]amino]butanoyl]-[Imp7,Aib8,His9,Arg18,Arg23,Arg26,Leu33,Ala36]-GLP-1-(7-37)-peptide] (Desaminohistidyl-[Aib]HGTFTSDVSRYLEGRAAREFIAWLLK([γGlu-γGlu-AEEA-γGlu-γGlu-C18 diacid])GAG-OH), for which the pIC50 is 9.00.
